Test results: patent US8080379B2, “Branched and multi-chain nucleic acid switches for sensing and screening” (Syracuse University, priority 2004, dated 2011)

Legend:
[1] = molecular target: NC (Human immunodeficiency virus type 1 group M subtype B, UniProt P12493); details: cited from earlier work
[2] = molecular target: T1, NCp7 (Human immunodeficiency virus type 1 group M subtype B, UniProt P12493); details: read-out: Kd′, single binding constant fit of FRET titration; Nt≅10 nM; emission at 517 nm
Description: FRET-monitored titration of the C3 (SEQ ID NO: 7) (Nt≅10 nM). [NCp7] increases left to right, expressed as the ratio Pt/Nt. The emission at 517 nm is reported after subtracting that of the RNase treated sample. […] Uncertainty in Nt limits the precision of this determination.
A fluorophore is placed at the 5′-end of the chain (*), and a quencher at the location marked Q. The distance between fluorophore and quencher is much larger in H than in O, so H has much stronger fluorescence.

[3] = H/O conformational equilibrium of the C3 switch by fluorescence; assay type: physicochemical; details: no protein
Description: Such “molecular beacons” operate on the principle of FRET.
It is appropriate to examine the two extreme states in FIG. 11 (sequences M1 and M2 in Table 2). This allows evaluation of the position of the K1 equilibrium shift upon changing the sequence. Simply put, the luminescence of pure H and O are known, so their populations in a mixed system are just linear functions of the measured luminescence.

[4] = molecular target: T1, NCp7; details: 10 nM concentration of the switch

Question: For c(F-C-dW-R-C-K), which “competition with NC for in vitro recognition of its RNA, DNA and protein targets” value [1] is on record?
Answer: The value was “competes with NC”.

Question: Which results are given for “C3: unimolecular bistable RNA/DNA switch, SEQ ID NO: 7, with FAM fluorophore and Dabsyl quencher (GCTATCCACCGATAGCTCCAACACGCUAGCGGUGGCUAGC; RNA/DNA chimera, FAM fluorophore and Dabsyl quencher, positions not given here)”?
Answer: Kd [2]: 500 nM; K1 = [O]/[H] [3]: 0.08

B1: M3: tethered duplex of all-DNA chain SEQ ID NO: 3 and DNA/RNA chimeric chain SEQ ID NO: 6 (nucleic acid)
chain 1: GCTATCCACCGATAGCTCACAGCACGACTCAGATGG
chain 2: CCATCTGAGTCGTGCACGCUAGCGGUGGCUAGC
modifications: chain 1: DNA, backbone not given here; chain 2: chemistry not given here; strands tethered, second strand DNA/RNA chimera
Question: Which “time of equilibration with NCp7” value [4] does the source give for B1 here?
Answer: Its value is “within a minute”.
